# Reference: article PMC4520450, “Procyanidins Negatively Affect the Activity of the Phosphatases of Regenerating Liver” (PLoS ONE, 2015)
# Tests used:
# PRL-3 = target: T1, PRL-3 (Homo sapiens, UniProt O75365); experiment: DiFMUP phosphatase activity assay for PRLs; assay type: biochemical; conditions: 50 nM PRL-3, 30 min preincubation, 25°C, 21 μM DiFMUP; mean ± SEM (n = 3–5); read-out: IC50 (Ki) PRL-3
# T1 construct: His-TEV (cleaved yes); made in house
# Procedure: Biochemical phosphatase activity measurements were carried out in the presence of different concentrations of various polyphenols, compounds 1–11 (Fig 1), using recombinant PRL-3 and 6,8-difluoro-4-methylumbelliferyl phosphate (DiFMUP) as a fluorogenic substrate (see the experimental procedures). We observed that the monomeric epicatechins EGC and EC inhibit PRL-3 only weakly, with a slightly better activity of EGC, which bears three hydroxyl groups at the B-ring. […] In general, as a basic structure activity-relationship the following trend was observed: a higher number of hydroxyl groups at the B-ring increased the activity slightly. […] The influence of the stereochemistry at C(2)–C(3) was studied by using GCG (the trans-epimer of EGCG).
# Fig 2 Effect of polyphenolic compounds 8 (A), 9 (B), 10 (C) and 11 (D) on the phosphatase activity of PRL-1, PRL-2, PRL-3, PP1, and PP2A. Proteins were incubated for 30 min with 0–1000 μM of the corresponding procyandin 8–11. Phosphatase activity was measured in the presence of DiFMUP at 25°C using the concentration corresponding to the KM of each protein. The KM for PRLs was determined separately (PRL-3 = 21 μM, PRL-2 and PRL-1 = 24 μM). The KM for PP1 (91 μM) and for PP2A (100 μM) was taken from the literature. Protein concentrations are 50 nM for all PRLs and 2 mU for PP1 and 0.05 U for PP2A (see the Experimental Procedures). Phosphatase activity in the absence of inhibitors was set as 100%. Data represent means ± standard errors of the mean (n = 3–5).
# DiFMUP assay for PRLs: In a final reaction volume of 100 μL the PRLs (50 nM final concentration) were incubated with decreasing concentrations of the inhibitory polyphenols for 30 minutes at 25°C. The buffer conditions were 108 mM TrisCl (pH 7.5), Triton 0.05% (v/v), DTT 27.0 mM, NaCl 811 mM. After the incubation time 20 μL DiFMUP (6,8-Difluoro-4-methylumbelliferyl phosphate) was added to reach a final concentration of 21 μM for PRL-3 and 24 μM for PRL-1 and PRL-2. On a Tecan safire2 (Tecan, Salzburg, Austria) plate reader dephosphorylation of the substrate to its fluorescent product was monitored by following the emission at 358 nm with excitation at 452 nm for 20 minutes. All measurements were done in triplicates, and the experiments were repeated at least three times. The slopes of the initial phases were obtained by linear regression of the data points. The normalized reaction rates were plotted versus the log of the inhibitor concentrations and the IC50 values were obtained by fitting the curves using the one site competition model of GraphPad Prism (GraphPad Software, Version 5). KM values were determined by measuring reaction kinetics of substrate dilution series. Initial velocities were plotted against DiFMUP concentration and the data was analyzed by Michaelis-Menten kinetics curve fitting of GraphPad Prism. A final DMSO content of 0.4% was maintained for the monomeric catechins. Due to the high water solubility of the procyanidins DMSO was not required and measurements were done in assay buffer only.
# [1] = test system: HEK293 cells (empty vector, PRL-1 and PRL-3 overexpressing); experiment: Cytotoxicity by flow cytometry with propidium iodide; assay type: cell-based; conditions: 24 h
# Text: To study the effects of procyanidins on PRL-1 and PRL-3 in cells, the trimeric catechin (procyanidin C2, 9) was chosen as a representative example due to its strong inhibitor activity in vitro toward both PRL-s and its smaller size compared to the higher oligomers, which could influence cell permeability. HEK293 cells stably overexpressing PRL-1 and PRL-3 were chosen as model cell line. As a control cell line, HEK293 cells transfected with the empty vector were utilized (see the Experimental Procedures). To avoid false positive results due to cell death, first cell viability was studied in a concentration dependent manner by using flow cytometry. Therefore, cells were treated with different concentrations of compound 9 for 24 h, harvested, and then the ratio of living to dead cells was determined using propidium iodide (Fig 5).
# Fig 5 Cytotoxicity of procyanidin C2 (9) in HEK293 cells. Cells were treated with 50, 150 or 300 μM of 9 in the growth medium for 24 h. Cells were harvested, resuspended in PBS buffer and incubated with propidium iodide (1 mg/mL) for 5 min on ice. 10,000 events were set for the number of living cells. The number of living cells was divided by the number of total cells counted and given as percentage of cell survival. Data represent means ± standard errors of the mean (n = 3).
# Fig 7 A) Cytotoxicity of procyanidin B3 (8) in HEK293 cells. Cells were treated with 50, 75 or 100 μM of 8 in the growth medium for 24 h. Cells were harvested, resuspended in PBS buffer and incubated with propidium iodide (1 mg/mL) for 5 min on ice. 10,000 events were set for the number of living cells. The number of living cells was divided by the number of total cells counted and given as percentage of cell survival. Data represent means ± standard errors of the mean (n = 3). B) Wound healing abilities of PRL-1 or PRL-3 overexpressing or empty vector control HEK293 cell lines were analyzed in the presence of compound 8 or medium only. Cells were seeded at a concentration of 800,000 cells per insert and procyanidin B3 (8) was added at a concentration of 50 and 75 μM. Speed of migration is shown for combined data from different replicates, as mean ± SD (n = 40–77). Two-sided t-tests with Welsh correction were performed for p < 0.05. ns = not significant;***: < 0.001; **: < 0.01; *: < 0.05.
# Flow cytometry was used to determine the ratio of living to dead cells compared to the control. HEK293 empty vector and PRL-3 overexpressing cells were seeded in a transparent 6-well plate with 400,000 cells/well in DMEM medium without Phenol red, supplemented with 10% FBS, 1% glutamine and 0.2% hygromycin and blasticidin. For induction of PRL-3 expression, 0.1% tetracycline was added. After 24 hours incubation at 37°C, procyanidins 8 or 9 dissolved in growth medium and growth medium as a control were added to the respective wells in the indicated final concentrations and incubated for another 24 hours. Then, the medium was removed and collected in Eppendorf tubes, centrifuged for 5 min at 500 rpm and the supernatant removed. Then 1 mL of PBS (10%) was added to each well and the cells detached with a cell scraper. […] After thorough mixing the cell suspension was injected into a LSR- Fortessa Bench Top Analyzer (Beckton Dickinson) and the number of living and dead cells counted. […] The number of living cells was divided by the number of total cells counted and given as percentage of cell survival.
# T1 sequence (O75365 whole entry): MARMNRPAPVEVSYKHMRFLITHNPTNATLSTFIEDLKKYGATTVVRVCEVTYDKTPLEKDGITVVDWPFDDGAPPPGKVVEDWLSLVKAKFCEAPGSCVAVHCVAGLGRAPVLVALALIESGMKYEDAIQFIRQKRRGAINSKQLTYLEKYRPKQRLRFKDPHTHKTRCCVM
compound,measurement,setting,value
"Oc1cc(O)c2c(c1)O[C@H](c1ccc(O)c(O)c1)[C@@H](O)[C@@H]2c1c(O)cc(O)c2c1O[C@H](c1ccc(O)c(O)c1)[C@@H](O)C2 [Procyanidin B3 (8), Procyanidin B3]",IC50,PRL-3,127 ± 1.5 µM
same,cytotoxic effects,"[1]; 50, 75 and 100 μM, all three cell lines",did not show any cytotoxic effects
same,concentration up to which not cytotoxic,[1],at least 100 μM
"Oc1cc(O)c2c(c1)O[C@H](c1ccc(O)c(O)c1)[C@@H](O)[C@@H]2c1c(O)cc(O)c2c1O[C@H](c1ccc(O)c(O)c1)[C@@H](O)[C@@H]2c1c(O)cc(O)c2c1O[C@H](c1ccc(O)c(O)c1)[C@@H](O)C2 [Procyanidin C2 (9), Procyanidin C2]",IC50,PRL-3,18.8 ± 4.5 µM
same,concentration up to which not cytotoxic,[1]; human,up to 50 μM
